Assay results: patent US20080276327A1, “Methods and Compositions Related to Delivery of Chemical Compounds to Invertebrate Embryos” (UNIVERSITY OF UTAH RESEARCH FOUNDATION, priority 2004, published 2008)

Test system: Drosophila embryos
Test: DMSO dose-response, development and hatching of Drosophila embryos
Format: in vivo
Method: Initial studies examined the toxicity of DMSO in Drosophila embryos.
First it was shown that DMSO was not deleterious to normal embryonic development.
Broad dilution series were made of DMSO in PBS. Approximately 50 eggs were placed in each well of a 96 well plate containing these solutions. They were placed at 18° C. or at 25° C. and hatched offspring were counted at the end of embryonic development (36 hours at 18° and 24 hours at 25°). […] 100% of eggs produced normal larvae at concentrations as high as 5% in PBS, pH 7.2. At 7.5% DMSO the percentage declined dramatically to approximately 50% and by 10% DMSO, the percentage hatching was only ˜10%.

`C[S+](C)[O-]` [DMSO] was tested, and the percentage hatching (7.5% DMSO in PBS) was “Approximately 50%”, the percentage hatching (10% DMSO in PBS) was ~10% and the “eggs that produced normal larvae” value (DMSO as high as 5% in PBS, pH 7.2) was 100%. For the same compound, the “embryos in which normal development occurs” value (concentrations of DMSO as high as 5%) was 100%, the “concentrations of DMSO at which embryonic development proceeds normally to eclosion” value (dose-response curves) was ≤ 5 % v/v and the “percentages surviving at 25° compared with 18°” value (solutions above 5% DMSO) was “always less than those kept at 18°”.
